Measurements as given in US20240000806A1, “METHODS AND MATERIALS FOR INHIBITING CB1 ACTIVITY” (University of Pittsburgh - Of the Commonwealth System of …, priority 2020, published 2024).

These compounds were tested against CB1 (CNR1) (Homo sapiens, UniProt P21554) (assay: cAMP CNR1 Hunter cell line antagonist assay (CB1 assay)). Conditions: antagonist mode, cAMP CNR1 Hunter cells, EC80 agonist; read-out: CB1 assay, Efficacy (IC50).
Format: cell-based
Experimental: cAMP CNR1 Hunter cell line (Eurofins DiscoveryX) were expanded from freezer stocks and seeded in a total volume of 20 μL into white walled, 384-well microplates and incubated at 37° C. for the appropriate time prior to testing. For antagonist determination, cell media was aspirated from cells and replaced with 10 μL 1:1 HBSS/Hepes:cAMP XS+Ab reagent. 5 μL of 4× compound was added to the cells and incubated at 37° C. for 30 minutes. 5 μL of 4× EC80 agonist was added to cells and incubated at 37° C. for 30 minutes. After appropriate compound incubation, assay signal was generated through incubation with 20 μL cAMP XS+ED/CL lysis cocktail for one hour followed by incubation with 20 μL cAMP XS+EA reagent for three hours at room temperature. Microplates were read following signal generation with a PerkinElmer Envision™ instrument for chemiluminescent signal detection. Compound activity (IC50) was analyzed using CBIS data analysis suite (ChemInnovation, CA).

Chain of CB1 (CNR1) (P21554 whole entry): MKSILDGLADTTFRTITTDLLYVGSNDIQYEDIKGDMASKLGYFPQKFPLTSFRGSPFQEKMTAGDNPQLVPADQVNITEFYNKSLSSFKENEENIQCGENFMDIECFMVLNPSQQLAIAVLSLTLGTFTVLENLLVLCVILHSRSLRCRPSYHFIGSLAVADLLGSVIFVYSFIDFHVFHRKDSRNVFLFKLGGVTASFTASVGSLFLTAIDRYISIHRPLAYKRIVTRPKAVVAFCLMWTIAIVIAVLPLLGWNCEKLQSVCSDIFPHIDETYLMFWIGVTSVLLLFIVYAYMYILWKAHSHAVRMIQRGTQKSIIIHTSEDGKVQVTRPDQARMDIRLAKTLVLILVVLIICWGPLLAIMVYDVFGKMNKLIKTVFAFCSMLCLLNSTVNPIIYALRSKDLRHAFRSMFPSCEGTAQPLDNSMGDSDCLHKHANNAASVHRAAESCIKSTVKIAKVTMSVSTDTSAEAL

Row | SMILES | IC50 [µM]
1 | CC1Oc2c(cc(Br)cc2S(=O)(=O)Nc2ccc(F)c(F)c2)N(C)C1=O (stereo not shown) [BC19787] | ≥ 25
2 | CCc1cccc(NS(=O)(=O)c2cc3c(cc2Cl)NC(=O)C(CC)O3)c1 (stereo not shown) [BC19749] | 1 to 25
3 | CC1Oc2cc(S(=O)(=O)Nc3ccc(F)cc3Cl)c(Cl)cc2NC1=O (stereo not shown) [BC19719] | 1 to 25
4 | O=C1NCCOc2c1cc(Br)cc2S(=O)(=O)Nc1ccc(OC(F)(F)F)cc1 [BC19550] | ≥ 25
5 | CCc1ccc(NS(=O)(=O)c2cc(Br)cc3c2OCCNC3=O)cc1 [BC19604] | 1 to 25
6 | CC1Oc2cc(S(=O)(=O)Nc3ccc(Cl)cc3)c(Br)cc2N(C)C1=O (stereo not shown) [BC19792] | ≥ 25
7 | CCC1Oc2c(cc(Br)cc2S(=O)(=O)Nc2ccc(F)cc2F)N(C)C1=O (stereo not shown) [BC19913] | 1 to 25
8 | Cc1ccc(NS(=O)(=O)c2cc(S(C)(=O)=O)cc3c2OCC(=O)N3)cc1 [BC19488] | ≥ 25
9 | CCS(=O)(=O)c1cc2c(c(S(=O)(=O)Nc3ccc(C)c(Cl)c3)c1)OCC(=O)N2 [BC19544] | ≥ 25
10 | CCC1Oc2cc(S(=O)(=O)Nc3ccccc3)c(Cl)cc2NC1=O (stereo not shown) [BC19737] | 1 to 25
11 | Cc1ccc(NS(=O)(=O)c2cc3c(cc2Br)N(C)C(=O)C(C)O3)cc1Cl (stereo not shown) [BC19797] | ≥ 25
12 | CCS(=O)(=O)c1cc2c(c(S(=O)(=O)Nc3ccc(Cl)cc3)c1)OCC(=O)N2 [BC19491] | ≥ 25
13 | O=C1CCOc2cc(S(=O)(=O)Nc3ccc(F)cc3)c(Br)cc2N1 [BC19660] | ≥ 25
14 | CCS(=O)(=O)c1cc2c(c(S(=O)(=O)Nc3ccc(F)cc3F)c1)OCC(=O)N2 [BC19545] | ≥ 25
15 | CCOc1ccc(NS(=O)(=O)c2cc(Br)cc3c2OCC(=O)N3)cc1 [BC19173] | ≥ 25
16 | CCC1Oc2cc(S(=O)(=O)Nc3ccc(F)cc3Cl)c(Cl)cc2NC1=O (stereo not shown) [BC19755] | 1 to 25
17 | CC1Oc2cc(S(=O)(=O)Nc3ccccc3)c(Br)cc2N(C)C1=O (stereo not shown) [BC19790] | 1 to 25
18 | CC(C)CC1Oc2c(cc(Br)cc2S(=O)(=O)Nc2cccc(F)c2)NC1=O (stereo not shown) [BC19773] | 1 to 25
19 | O=C(O)c1cc2c(c(NS(=O)(=O)c3ccc(F)c(F)c3)c1)N1CCCC1C(=O)N2 (stereo not shown) [BC19917] | 1 to 25
20 | O=C1COc2cc(S(=O)(=O)NCCc3ccc(OC(F)(F)F)cc3)c(Br)cc2N1 [BC19387] | ≥ 25
21 | CC(C)c1ccc(NS(=O)(=O)c2cc(S(C)(=O)=O)cc3c2OCC(=O)N3)cc1 [BC19424] | ≥ 25
22 | CC(C)CC1Oc2c(cc(Br)cc2S(=O)(=O)Nc2cccc(Cl)c2)NC1=O (stereo not shown) [BC19775] | ≥ 25
23 | CS(=O)(=O)c1cc2c(c(S(=O)(=O)Nc3cccc(F)c3)c1)OCC(=O)N2 [BC19426] | ≥ 25
24 | CC(C)(C)C1CCC(NS(=O)(=O)c2cc(Br)cc3c2OCC(=O)N3)CC1 (stereo not shown) [BC19380] | ≥ 25
25 | Cc1ccc(NS(=O)(=O)c2cc(Cl)cc3c2OC(C)C(=O)N3)cc1 (stereo not shown) [BC19718] | ≥ 25
26 | O=C1COc2c(cc(Br)cc2S(=O)(=O)NC2CCC(O)CC2)N1 (stereo not shown) [BC19381] | ≥ 25

Row | SMILES | IC50 [µM]
27 | CCC1Oc2cc(S(=O)(=O)NCc3ccc(F)cc3F)c(Br)cc2NC1=O (stereo not shown) [BC19368] | ≥ 25
28 | CCc1cccc(NS(=O)(=O)c2cc3c(cc2Br)NC(=O)C(CC(C)C)O3)c1 (stereo not shown) [BC19772] | 1 to 25
29 | Cc1ccc(NS(=O)(=O)c2cc(Br)cc3c2OC(CC(C)C)C(=O)N3)cc1Cl (stereo not shown) [BC19767] | 1 to 25
30 | CC1Oc2c(cc(Cl)cc2S(=O)(=O)Nc2cccc(F)c2)NC1=O (stereo not shown) [BC19714] | ≥ 25
31 | O=C1COc2cc(S(=O)(=O)NCc3ccc(C(F)(F)F)cc3)c(Br)cc2N1 [BC19391] | ≥ 25
32 | CC1Oc2cc(S(=O)(=O)N3CCCC3)c(Cl)cc2NC1=O (stereo not shown) [BC19208] | ≥ 25
33 | COc1ccc(NS(=O)(=O)c2cc(S(C)(=O)=O)cc3c2OCC(=O)N3)cc1Cl [BC19429] | ≥ 25
34 | CCC1Oc2c(cc(Br)cc2S(=O)(=O)NCc2ccccc2)NC1=O (stereo not shown) [BC19230] | ≥ 25
35 | CCS(=O)(=O)c1cc2c(c(S(=O)(=O)Nc3ccc(C)cc3)c1)OCC(=O)N2 [BC19546] | ≥ 25
36 | CCC1Oc2c(cc(Cl)cc2S(=O)(=O)Nc2ccccc2)NC1=O (stereo not shown) [BC19738] | < 1
37 | CS(=O)(=O)c1cc2c(c(S(=O)(=O)Nc3ccc(F)c(F)c3)c1)OCC(=O)N2 [BC19481] | ≥ 25
38 | CS(=O)(=O)c1cc2c(c(S(=O)(=O)Nc3ccc(Cl)cc3)c1)OCC(=O)N2 [BC19483] | ≥ 25
39 | CC(C)NS(=O)(=O)c1cc2c(cc1Cl)NC(=O)C(C)O2 (stereo not shown) [BC19207] | ≥ 25
40 | CC(C)c1ccc(NS(=O)(=O)c2cc3c(cc2Br)NC(=O)CCO3)cc1 [BC19691] | 1 to 25
41 | CC1Oc2cc(S(=O)(=O)NCCc3ccc(OC(F)(F)F)cc3)c(Br)cc2NC1=O (stereo not shown) [BC19359] | 1 to 25
42 | CCC1Oc2c(cc(Br)cc2S(=O)(=O)Nc2ccc(Cl)cc2)NC1=O (stereo not shown) [BC19290] | ≥ 25
43 | CCC1Oc2c(cc(Br)cc2S(=O)(=O)Nc2ccc(C(C)C)cc2)N(C)C1=O (stereo not shown) [BC19933] | ≥ 25
44 | CC1Oc2c(cc(Br)cc2S(=O)(=O)Nc2ccccc2)N(C)C1=O (stereo not shown) [BC19789] | ≥ 25
45 | CCc1ccc(NS(=O)(=O)c2cc(Cl)cc3c2OC(C)C(=O)N3)cc1 (stereo not shown) [BC19703] | 1 to 25
46 | O=C1COc2cc(S(=O)(=O)NC3CCC(O)CC3)c(Br)cc2N1 (stereo not shown) [BC19389] | ≥ 25
47 | CCC1Oc2c(cc(Br)cc2S(=O)(=O)NC2CCC(C(C)(C)C)CC2)NC1=O (stereo not shown) [BC19379] | 1 to 25
48 | CC1Oc2c(cc(Br)cc2S(=O)(=O)NCc2ccc(OC(F)(F)F)cc2)NC1=O (stereo not shown) [BC19363] | 1 to 25
49 | CCC1Oc2cc(S(=O)(=O)Nc3ccc(C(C)C)cc3)c(Br)cc2N(C)C1=O (stereo not shown) [BC19934] | ≥ 25
50 | CCc1cccc(NS(=O)(=O)c2cc3c(cc2Br)NC(=O)C(C)O3)c1 (stereo not shown) [BC19283] | 1 to 25
51 | COc1ccc(NS(=O)(=O)c2cc(Br)cc3c2OCC(=O)N3)cc1Cl [BC19171] | 1 to 25
52 | CCc1cccc(NS(=O)(=O)c2cc3c(cc2Br)N(C)C(=O)C(CC)O3)c1 (stereo not shown) [BC19916] | 1 to 25

Row | SMILES | IC50 [µM]
53 | CCc1cccc(NS(=O)(=O)c2cc3c(cc2Cl)NC(=O)C(C)O3)c1 (stereo not shown) [BC19711] | ≥ 25
54 | CC1Oc2cc(S(=O)(=O)N3CCOCC3)c(Br)cc2NC1=O (stereo not shown) [BC19217] | ≥ 25
55 | CC1Oc2c(cc(Cl)cc2S(=O)(=O)Nc2ccc(F)cc2F)NC1=O (stereo not shown) [BC19710] | ≥ 25
56 | CCS(=O)(=O)c1cc2c(c(S(=O)(=O)Nc3cccc(F)c3)c1)OCC(=O)N2 [BC19440] | ≥ 25
57 | CC(C)CC1Oc2c(cc(Br)cc2S(=O)(=O)Nc2ccc(F)cc2)NC1=O (stereo not shown) [BC19781] | 1 to 25
58 | CCS(=O)(=O)c1cc2c(c(S(=O)(=O)Nc3ccc(F)cc3)c1)OCC(=O)N2 [BC19443] | ≥ 25
59 | CC1Oc2c(cc(Cl)cc2S(=O)(=O)Nc2ccc(F)cc2Cl)NC1=O (stereo not shown) [BC19720] | ≥ 25
60 | COc1ccc(NS(=O)(=O)c2cc3c(cc2Br)NC(=O)CCO3)cc1 [BC19692] | < 1
61 | O=C1CCOc2c(cc(Br)cc2S(=O)(=O)Nc2ccc(Cl)cc2)N1 [BC19685] | ≥ 25
62 | O=C1COc2cc(S(=O)(=O)Nc3ccc(F)cc3F)c(Br)cc2N1 [BC19166] | < 1
63 | CCC1Oc2cc(S(=O)(=O)NC3CCCCC3)c(Br)cc2NC1=O (stereo not shown) [BC19223] | 1 to 25
64 | CC(C)(C)C1CCC(NS(=O)(=O)c2cc3c(cc2Br)NC(=O)CO3)CC1 (stereo not shown) [BC19388] | ≥ 25
65 | CCc1cccc(NS(=O)(=O)c2cc(Br)cc3c2OC(C)C(=O)N3C)c1 (stereo not shown) [BC19900] | ≥ 25
66 | CCC1Oc2c(cc(Cl)cc2S(=O)(=O)Nc2ccc(F)cc2Cl)NC1=O (stereo not shown) [BC19756] | 1 to 25
67 | CCC1Oc2cc(S(=O)(=O)Nc3cccc(Cl)c3)c(Cl)cc2NC1=O (stereo not shown) [BC19751] | < 1
68 | CCC1Oc2cc(S(=O)(=O)Nc3ccc(C(C)C)cc3)c(Cl)cc2NC1=O (stereo not shown) [BC19210] | < 1
69 | COc1ccc(NS(=O)(=O)c2cc(Br)cc3c2OCCNC3=O)cc1 [BC19606] | ≥ 25
70 | CCC1Oc2c(cc(Br)cc2S(=O)(=O)NCc2ccc(OC(F)(F)F)cc2)NC1=O (stereo not shown) [BC19375] | 1 to 25
71 | O=C1CCOc2c(cc(Br)cc2S(=O)(=O)Nc2cccc(Cl)c2)N1 [BC19650] | ≥ 25
72 | CCC1Oc2cc(S(=O)(=O)Nc3ccc(OC(F)(F)F)cc3)c(Br)cc2N(C)C1=O (stereo not shown) [BC19922] | ≥ 25
73 | COc1ccc(NS(=O)(=O)c2cc(Br)cc3c2OCC(=O)N3)cc1 [BC19175] | ≥ 25
74 | COc1ccc(NS(=O)(=O)c2cc(Br)cc3c2OCCNC3=O)cc1Cl [BC19614] | ≥ 25
75 | CC(C)CC1Oc2c(cc(Br)cc2S(=O)(=O)Nc2ccc(C(C)C)cc2)NC1=O (stereo not shown) [BC19765] | ≥ 25
76 | Cc1ccc(NS(=O)(=O)c2cc(Cl)cc3c2OC(C)C(=O)N3)cc1F (stereo not shown) [BC19701] | 1 to 25
